From PubChem BioAssay AID977625 (Broad Institute, 2014)
Records with an inconclusive call do not appear. Calls of active or inactive are those of the source.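 The calls were made as follows: active = red signal from normal-ribosome E. coli cut at least twice as much as green humanized-ribosome signal, growth cut under 30%; inconclusive = no clear call, values can overlap the other calls; inactive = the rest.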

Experiments:
[1] = selective ribosome h34 site antibacterial activity – h34 mutant GFP vs wild-type RFP, cherry-pick, OD600, dose response (AID 977625); conditions: E. coli h34-humanized GFP strain growth, fluorescence, 24 h; at 50 µM (top of the series)
[2] = tested on: E. coli mixed culture (wild-type RFP + h34-humanized GFP), total OD600 growth, 24 h; assay: as above; conditions: E. coli h34-humanized GFP strain growth, fluorescence, 24 h; measured here: total culture OD600 growth
[3] = tested on: E. coli h34-humanized GFP strain growth, fluorescence, 24 h; assay: as above

Row | Compound | activity change, negative = inhibition [1] | AC50 [2] [µM] | AC50 [3]
1 | COc1cc2c(cc1[N+](=O)[O-])-c1ccc([N+](=O)[O-])cc1C2 | -48.1 (inactive) | 0.378 | 
2 | COc1ccc(Cn2c(-c3ccc(Cl)cc3)c[n+]3ccccc23)cc1 | 30.2 (inactive) |  | 
3 | COc1ccc(-n2cc(-c3ccccc3)c3c(N4CCOCC4)ncnc32)cc1 |  | 42.2 | > 100 µM (inactive)
4 | Cc1ccc(S(=O)(=O)N2CC[C@H]3[C@H](CO)Nc4ccc(Br)cc4[C@H]32)cc1 | 7.09 (inactive) |  | 
5 | C[C@@H]1CCCCO[C@H](CN(C)C(=O)CCCN(C)C)[C@H](C)CN([C@@H](C)CO)C(=O)c2cc(NC(=O)Nc3cccc4ccccc34)ccc2O1 | 21.7 (inactive) | > 100 | 
6 | O=C(O)c1cc([N+](=O)[O-])ccc1NCc1ccccc1 |  | 20.1 | 
7 | COc1ccc2[nH]c3c(=O)n(CCCCC(=O)NCCC(C)C)c(=S)[nH]c3c2c1 | -5.72 (inactive) |  | 
8 | CC1(Cc2ccccc2C#N)C(=O)Nc2cc(-c3ccccc3Cl)ccc21 (stereo unspecified) |  | 24.8 | 
9 | CCOC(=O)c1c(NC(=O)Cc2cccs2)sc(C)c1C | 12.4 (inactive) | > 100 | 
10 | Cc1noc(C)c1NC(=O)Nc1ccc2c(c1)C(=O)N([C@H](C)CO)C[C@@H](C)[C@@H](CN(C)C(=O)Nc1ccc3c(c1)OCO3)OCCCC[C@@H](C)O2 | 0.093 (inactive) |  | 
11 | CCN(CC)CCn1c2ccccc2c2nc3ccc([N+](=O)[O-])cc3cc21 |  | 4.35 | 1.39 µM (inactive)
12 | COc1cccc(C(=O)Nc2cc(C)nn2-c2ccccc2)c1OC | 18.9 (inactive) | > 100 | 
13 | Cc1ccc(C)c(NC(=O)CSc2nc3nc(-c4cccs4)cc(C(F)(F)F)c3c(=O)[nH]2)c1 | -48.2 (inactive) | 36.2 | 
14 | CCn1c(-c2cc(-c3ccc(OC(C)C)cc3)nc3ccccc23)n[nH]c1=S |  |  | > 100 µM (inactive)
